# Assay results published in patent publication US20230075856A1, “CYCLIC SULFAMIDE COMPOUNDS FOR TREATMENT OF HBV” (Assembly Biosciences, Inc., priority 2018, published 2023).
# Tested on: HBV viral load production from HepAD38 cells
# Test: Viral production from HepAD38 cells: viral load in supernatant by qPCR of the HBV core sequence
# Format: cell-based
# Conditions: 5 days incubation, qPCR of supernatant HBV DNA vs DMSO control, read-out: viral load lowering EC50 (Activity)
# Procedure, shortened: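 Viral load was measured by qPCR of the HBV core region in supernatant, quantified against DNA standards and compared with DMSO wells. Cells (50,000/well, tetracycline withdrawn, 2% FBS) received compound from 10 μM final for 5 days; EC50 from four-parameter nonlinear regression.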
row,Compound,EC50 [µM]
1,"N3-(3-chloro-4-fluoro-phenyl)-2-methyl-1,1-(trifluoromethyl)phenyl]ethyl]-1,2,6-thiadiazinane-3,5-dicarboxamide [493-S-ISOMER-B]",0.1 to 10
2,"CN1C(C(=O)Nc2ccc(F)c(Cl)c2)CC(C(=O)NCc2cnc(-c3cccc(Cl)c3)s2)NS1(=O)=O (single isomer, unassigned; isomer-b) [Compound 913-ISOMER-B, N3-(3-chloro-4-fluoro-phenyl)-N5-[[2-(3-chlorophenyl)thiazol-5-yl]methyl]-2-methyl-1,1-dioxo-1,2,-thiadiazinane-3,5-dicarboxamide]",< 0.05
3,"Cc1cnc(CNC(=O)C2CC(C(=O)Nc3ccc(F)c(Cl)c3)N(C)S(=O)(=O)N2)s1 (single isomer, unassigned) [Compound 687-ISOMER-B, N3-(3-chloro-4-fluoro-phenyl)-2-methyl-N5-[(5-methylthiazol-2-yl)methyl]-1,1-dioxo-1,2,6-thiadiazinane-3,5-dicarboxamide]",< 0.05
4,"CN1C(C(=O)Nc2ccc(F)c(Cl)c2)CC(C(=O)NC2CCCc3nc(-c4ccc(OCCN5CCCCC5)cc4)sc32)NS1(=O)=O (single isomer, unassigned; isomer-d) [Compound 948-ISOMER-D]",< 0.05
5,"CN1C(C(=O)Nc2ccc(F)c(Cl)c2)CC(C(=O)NC2CCN(c3cc(CN4CCCCC4)ccn3)CC2)NS1(=O)=O (single isomer, unassigned; isomer-b) [Compound 975-ISOMER-B, N3-(3-chloro-4-fluroo-phenyl)-2-methyl-1,1-dioxo-N5-[1-[4-(1-piperidylmethyl)-2-pyridyl]-4-piperidyl]-1,2,6-thiadiazinane-3,5-dicarboxamide]",0.1 to 10

# Same assay, conditions: Hepatitis B virus, HePAD38, 120 h, 5 days incubation, qPCR of supernatant HBV DNA vs DMSO control, read-out: viral load lowering EC50 (Activity)
row,Compound,EC50 [µM]
1,"CN1C(C(=O)Nc2ccc(F)c(Cl)c2)CC(C(=O)N[C@@H](c2ccccc2)c2cnc(-c3ccccc3Cl)s2)NS1(=O)=O (single isomer, unassigned) [1068-ISOMER-B]",0.05 to 0.1
2,CN1C(C(=O)Nc2ccc(F)c(Cl)c2)CC(C(=O)NC2CC2c2ccccc2)NS1(=O)=O (stereo not shown) [Compound 476],0.05 to 0.1
3,CN1C(C(=O)Nc2ccc(F)c(Cl)c2)CC(C(=O)NCc2ccc(S(N)(=O)=O)s2)NS1(=O)=O (stereo not shown) [Compound 682],0.1 to 10
4,CN1C(C(=O)Nc2ccc(F)c(Cl)c2)CC(C(=O)NC2CCC(F)(F)CC2)NS1(=O)=O (stereo not shown) [Compound 859],0.1 to 10
5,COC(=O)N1CCC(NC(=O)C2CC(C(=O)Nc3ccc(F)c(Cl)c3)N(CC(F)(F)F)S(=O)(=O)N2)CC1 (stereo not shown) [Compound 893],< 0.05
6,COC(=O)N1CCC(NC(=O)C2CC(C(=O)Nc3ccc(F)c(Cl)c3)N(C)S(=O)(=O)N2)CC1 (stereo not shown) [Compound 477],< 0.05
7,CN1C(C(=O)Nc2ccc(F)c(Cl)c2)CC(C(=O)NC2CCCc3nc(-c4ccccc4)sc32)NS1(=O)=O (stereo not shown) [Compound 917],< 0.05
8,Cc1ncc(CNC(=O)C2CC(C(=O)Nc3ccc(F)c(Cl)c3)N(C)S(=O)(=O)N2)s1 (stereo not shown) [Compound 495],< 0.05
9,CN1C(C(=O)Nc2ccc(F)c(Cl)c2)CC(C(=O)NC2CCN(S(=O)(=O)C(F)(F)F)CC2)NS1(=O)=O (stereo not shown) [Compound 856],0.1 to 10
10,CN1C(C(=O)Nc2ccc(F)c(Cl)c2)CC(C(=O)NCc2ccccc2N2CCOCC2)NS1(=O)=O (stereo not shown) [Compound 907],0.05 to 0.1
11,"Cc1ccccc1-c1nc(C)c(CNC(=O)C2CC(C(=O)Nc3ccc(F)c(Cl)c3)N(C)S(=O)(=O)N2)s1 (single isomer, unassigned) [1017-ISOMER-A, N3-(3-chloro-4-fluoro-phenyl)-2-methyl-N5-[[4-methyl-2-(o-tolyl)thiazol-5-yl]methyl]-1,1-dioxo-1,2,6-thiadiazinane-3,5-dicarboxamide]",< 0.05
12,CN1C(C(=O)Nc2ccc(F)c(Cl)c2)CC(C(=O)NC2CCCc3nc(-c4ccccc4Cl)sc32)NS1(=O)=O (stereo not shown) [Compound 1018],< 0.05
13,CN1C(C(=O)Nc2ccc(F)c(Cl)c2)CC(C(=O)NCc2nn(-c3ccccc3Cl)c3ccccc23)NS1(=O)=O (stereo not shown) [Compound 1073],< 0.05
14,Cc1nc(-c2ccccc2Cl)sc1CNC(=O)C1CC(C(=O)Nc2ccc(F)c(Cl)c2)N(C)S(=O)(=O)N1 (stereo not shown) [Compound 1015],< 0.05
15,CC(NC(=O)C1CC(C(=O)Nc2ccc(F)c(Cl)c2)N(C)S(=O)(=O)N1)c1csc(Cl)n1 (stereo not shown) [Compound 1007],< 0.05
16,CN1C(C(=O)Nc2ccc(F)c(Cl)c2)CC(C(=O)NCc2cnc(-c3ccccc3Cl)s2)NS1(=O)=O (stereo not shown) [Compound 912],< 0.05
17,CN1C(C(=O)Nc2ccc(F)c(Cl)c2)CC(C(=O)NCc2cnc(N)s2)NS1(=O)=O (stereo not shown) [Compound 1132],0.1 to 10
18,CN1C(C(=O)Nc2ccc(F)c(C#N)c2)CC(C(=O)NCc2ccccc2)NS1(=O)=O (stereo not shown) [Compound 833],0.1 to 10
19,"CN(C)CCCCc1cnn(-c2ncc(CNC(=O)C3CC(C(=O)Nc4ccc(F)c(Cl)c4)N(C)S(=O)(=O)N3)s2)c1 (single isomer, unassigned) [1197-ISOMER-A, N3-(3-chloro-4-fluoro-phenyl)-N5-[[2-[4-[4-(dimethylamino)butyl]pyrazol-1-yl]thiazol-5-yl]methyl]-2-methyl-1,1-dioxo-1,2,6-thiadiazinane-3,5-dicarboxamide]",0.1 to 10

row,Compound,EC50 [µM]
1,C[C@@H](NC(=O)C1CC(C(=O)Nc2ccc(F)c(Cl)c2)N(C)S(=O)(=O)N1)C1CCCCC1 (stereo partly shown) [Compound 741],0.05 to 0.1
2,CN1C(C(=O)Nc2ccc(F)c(Cl)c2)CC(C(=O)NC2CCN(c3ncccn3)CC2)NS1(=O)=O (stereo not shown) [Compound 855],< 0.05
3,COCCN1C(C(=O)Nc2ccc(F)c(Cl)c2)CC(C(=O)NC2CCN(C(=O)OC)CC2)NS1(=O)=O (stereo not shown) [Compound 896],0.1 to 10
4,CN1C(C(=O)Nc2ccc(F)c(Cl)c2)CC(C(=O)NCc2ccn(-c3ccccc3)n2)NS1(=O)=O (stereo not shown) [Compound 991],< 0.05
5,"CN1C(C(=O)Nc2ccc(F)c(Cl)c2)CC(C(=O)NCc2ccccc2-c2cn(C)cn2)NS1(=O)=O (single isomer, unassigned) [Compound 823-ISOMER-B, N3-(3-chloro-4-fluoro-phenyl)-2-methyl-N5-[[2-(1-methylimidazol-4-yl)phenyl]methyl]-1,1-dioxo-1,2,6-thiadiazinane-3,5-dicarboxamide]",0.1 to 10
6,"CN1C(C(=O)Nc2ccc(F)c(Cl)c2)CC(C(=O)NC2CCN(c3cc(Cl)ccn3)CC2)NS1(=O)=O (single isomer, unassigned) [Compound 974-ISOMER-A, N3-(3-chloro-4-fluoro-phenyl)-N5-[1-(4-chloro-2-pyridyl)-4-piperidyl]-2-methyl-1,1-dioxo-1,2,6-thiadiazinane-3,5-dicarboxamide]",< 0.05
7,"CN1CCC(Oc2ccc(-c3ncc(CNC(=O)C4CC(C(=O)Nc5ccc(F)c(Cl)c5)N(C)S(=O)(=O)N4)s3)cc2)CC1 (single isomer, unassigned) [Compound 979-ISOMER-A, N3-(3-chloro-4-fluoro-phenyl)-2-methyl-N5-[[2-[4-[(1-methyl-4-piperidyl)oxy]phenyl]thiazol-5-yl]methyl]-1,1-dioxo-1,2,6-thiadiazinane-3,5-dicarboxamide]",0.1 to 10
8,COC(=O)N1CCC(NC(=O)C2CC(C(=O)Nc3ccc(F)c(C#N)c3)N(C)S(=O)(=O)N2)CC1 (stereo not shown) [Compound 770],0.05 to 0.1
9,CN1C(C(=O)Nc2ccc(F)c(Cl)c2)CC(C(=O)Nc2ccc3cccnc3c2)NS1(=O)=O (stereo not shown) [Compound 725],0.05 to 0.1
10,Cc1cn(-c2ccccc2)nc1CNC(=O)C1CC(C(=O)Nc2ccc(F)c(Cl)c2)N(C)S(=O)(=O)N1 (stereo not shown) [Compound 1057],< 0.05
11,"Cc1nc(-c2ccc(F)cc2)sc1CNC(=O)C1CC(C(=O)Nc2ccc(F)c(Cl)c2)N(C)S(=O)(=O)N1 (single isomer, unassigned) [1056-ISOMER-A, N3-(3-chloro-4-fluoro-phenyl)-N5-[[2-(4-fluorophenyl)-4-methyl-thiazol-5-yl]methyl]-2-methyl-1,1-dioxo-1,2,6-thiadiazinane-3,5-dicarboxamide]",0.1 to 10
12,COc1ccnc(N2CCC(NC(=O)C3CC(C(=O)Nc4ccc(F)c(Cl)c4)N(C)S(=O)(=O)N3)CC2)c1 (stereo not shown) [Compound 972],< 0.05
13,"C[C@H](NC(=O)C1CC(C(=O)Nc2ccc(F)c(Cl)c2)N(C)S(=O)(=O)N1)c1ccc(C(F)(F)F)cc1 (single isomer, unassigned) [493-S-ISOMER-A]",< 0.05
14,Cc1sc(N2CCC(NC(=O)C3CC(C(=O)Nc4ccc(F)c(Cl)c4)N(C)S(=O)(=O)N3)CC2)nc1C(=O)N(C)C (stereo not shown) [Compound 1093],< 0.05
15,CN1C(C(=O)Nc2ccc(F)c(Cl)c2)CC(C(=O)NC2CCN(c3ccnc(C#N)c3)CC2)NS1(=O)=O (stereo not shown) [Compound 1089],< 0.05
16,Cc1nc(-c2ccccc2F)sc1C(NC(=O)C1CC(C(=O)Nc2ccc(F)c(Cl)c2)N(C)S(=O)(=O)N1)c1ccccc1 (stereo not shown) [Compound 1101],0.05 to 0.1
17,"CN1C(C(=O)Nc2ccc(F)c(Cl)c2)CC(C(=O)NCc2cnc(-c3ccc(OCCCN4CCSCC4)cc3)s2)NS1(=O)=O (single isomer, unassigned) [Compound 925-ISOMER-A, N3-(3-chloro-4-fluoro-phenyl)-2-methyl-1,1-dioxo-N5-[[2-[4-(3-thiomorpholinopropoxy)phenyl]thiazol-5-yl]methyl]-1,2,6-thiadiazinane-3,5-dicarboxamide]",< 0.05
18,"Cc1nc(-c2ccccc2)sc1CNC(=O)C1CC(C(=O)Nc2ccc(F)c(Cl)c2)N(C)S(=O)(=O)N1 (single isomer, unassigned) [Compound 914-ISOMER-A, N3-(3-chloro-4-fluoro-phenyl)-2-methyl-N5-[(4-methyl-2-phenyl-thiazol-5-yl)methyl]-1,1-dioxo-1,2,6-thiadiazinane-3,5-dicarboxamide]",< 0.05
19,"CN1C(C(=O)Nc2ccc(F)c(Cl)c2)CC(C(=O)NCc2cnc(Cl)s2)NS1(=O)=O (single isomer, unassigned) [1199-ISOMER-A, N3-(3-chloro-4-fluoro-phenyl)-N5-[(2-chlorothiazol-5-yl)methyl]-2-methyl-1,1-dioxo-1,2,6-thiadiazinane-3,5-dicarboxamide]",< 0.05
